This note sets out measurements from patent US20060240021A1, “Mammalian genes involved in rapamycin resistance and tumorgenesis: rapr7 genes” (priority 2002, published 2006).

The subject of this assay is N2a cells. The assay can be described thus: MTT proliferation assay, rapamycin mediated cell growth inhibition of N2a cells. As to conditions: FIG. 7. Type of assay: cell-based, mouse. From the text: FIG. 7 illustrates sensitivity of the N2a cell line to the growth inhibitory effect of rapamycin.
In a preferred embodiment, an MTT proliferation assay (see, e.g., van de Loosdrechet, et al., 1994, J. Immunol. Methods 174: 311-320; Ohno et al., 1991, J. Immunol. Methods 145:199-203; Ferrari et al., 1990, J. Immunol. Methods 131: 165-172; Alley et al., 1988, Cancer Res. 48: 589-601; Carmichael et al., 1987, Cancer Res. 47:936-942; Gerlier et al., 1986, J. Immunol. Methods 65:55-63; Mosmann, 1983, J. Immunological Methods 65:55-63) is used to screen for a candidate agent in conjunction with rapamycin to inhibit the growth of rapamycin resistant cells. The cells are treated with chosen concentrations of the candidate agent and rapamycin for 4 to 72 hours. The cells are then incubated with a suitable amount of 3-(4,5-dimethylthiazol-2-yl)-2,5-diphenyltetrazolium bromide (MTT) for 1-8 hours such that viable cells convert MTT into an intracellular deposit of insoluble formazan. After removing the excess MTT contained in the supernatant, a suitable MTT solvent, e.g., a DMSO solution, is added to dissolved the formazan. The concentration of […], which is proportional to the number of viable cells, is then measured by determining the optical density at […]. […]
(Formazan colour is commonly taken as a measure of viable cells.)

As for `CO[C@H]1C[C@@H]2CC[C@@H](C)[C@@](O)(O2)C(=O)C(=O)N2CCCC[C@H]2C(=O)O[C@H]([C@H](C)C[C@@H]2CC[C@@H](O)[C@H](OC)C2)CC(=O)[C@H](C)/C=C(\C)[C@@H](O)[C@@H](OC)C(=O)[C@H](C)C[C@H](C)/C=C/C=C/C=C/1C` [rapamycin, 9,10,12,13,14,21,22,23,24,25,26,27,32,33,34,34a-hexadecahydro-9,27-dihydroxy-3-[2-(4-hydroxy-3-methoxycyclohexyl)-1-methylethyl]-10,21-dimethoxy-6,8,12,14,20,26-hexamethyl-23,27-epoxy-3H-pyrido[2,1-c][1,4]oxaazacyclohentricontine-1,5,11,28,29(4H,6H,31H)-pentone], the “rapamycin concentration at which the growth of N2a cells is completely inhibited” value (N2a cell line) is at least 1 µM. Besides, the “rapamycin concentration at which N2a cells are sensitive to cell growth inhibition” value (mouse neuroblastoma N2a cells, MTT assay) is given as 10 nM.
